# Experimental data as given in PMC5760531, “Action Potential Recording and Pro-arrhythmia Risk Analysis in Human Ventricular Trabeculae” (Frontiers in Physiology, 2018).
# Test system: human ventricular trabeculae
# Assay: Action potential recording and pro-arrhythmic score analysis in human ventricular trabeculae (hVT);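 also: sharp microelectrode action potential recordings at 37°C in Tyrode-perfused trabeculae, 4 cumulative concentrations each applied 31 min, values averaged over last 30 APs, vehicle 0.1% DMSO as control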
# [1] = 1Hz, 1-FOLD free ETPC (0.009µM)
# [2] = 1Hz, 11-FOLD free ETPC (0.009µM)
# [3] = 1Hz, 111-FOLD free ETPC (0.009µM)
# [4] = 1Hz, 1111-FOLD free ETPC (0.009µM)
# [5] = 2Hz, 1-FOLD free ETPC (0.009µM)
# [6] = 2Hz, 11-FOLD free ETPC (0.009µM)
# [7] = 2Hz, 111-FOLD free ETPC (0.009µM)
# [8] = 2Hz, 1111-FOLD free ETPC (0.009µM)
structure (smiles),measurement,setting,value
"CC(C)(C)c1ccc(C(O)CCCN2CCC(C(O)(c3ccccc3)c3ccccc3)CC2)cc1 (stereo not drawn) [TERFENADINE, Terfenadine]",AMAX,[1],113
same,AMAX percentage change compared to vehicle control,[1],1%
same,APD30,[1],148
same,APD30 percentage change compared to vehicle control,[1],4%
same,APD50,[1],199
same,APD50 percentage change compared to vehicle control,[1],3%
same,APD90,[1],278
same,APD90 percentage change compared to vehicle control,[1],1%
same,Alternans,[1],0.70
same,Alternans percentage change compared to vehicle control,[1],53%
same,Beat Escape,[1],0
same,Beat Escape percentage change compared to vehicle control,[1],0%
same,EADs,[1],0
same,EADs percentage change compared to vehicle control,[1],0%
same,ERP,[1],0.45
same,ERP percentage change compared to vehicle control,[1],-2%
same,Max Dispersion,[1],4.48
same,Max Dispersion percentage change compared to vehicle control,[1],60%
same,RMP,[1],-89
same,RMP percentage change compared to vehicle control,[1],1%
same,Refractoriness Escape,[1],0
same,Refractoriness Escape percentage change compared to vehicle control,[1],0%
same,STV,[1],0.50
same,STV percentage change compared to vehicle control,[1],72%
same,Triangulation,[1],130
same,Triangulation percentage change compared to vehicle control,[1],-2%
same,AMAX,[2],109
same,AMAX percentage change compared to vehicle control,[2],-1%
same,APD30,[2],152
same,APD30 percentage change compared to vehicle control,[2],6%
same,APD50,[2],203
same,APD50 percentage change compared to vehicle control,[2],4%
same,APD90,[2],286
same,APD90 percentage change compared to vehicle control,[2],3%
same,Alternans,[2],0.62
same,Alternans percentage change compared to vehicle control,[2],35%
same,Beat Escape,[2],0
same,Beat Escape percentage change compared to vehicle control,[2],0%
same,EADs,[2],0
same,EADs percentage change compared to vehicle control,[2],0%
same,ERP,[2],0.44
same,ERP percentage change compared to vehicle control,[2],-3%
same,Max Dispersion,[2],2.80
same,Max Dispersion percentage change compared to vehicle control,[2],0%
same,RMP,[2],-86
same,RMP percentage change compared to vehicle control,[2],-2%
same,Refractoriness Escape,[2],0
same,Refractoriness Escape percentage change compared to vehicle control,[2],0%
same,STV,[2],0.45
same,STV percentage change compared to vehicle control,[2],40%
same,Triangulation,[2],134
same,Triangulation percentage change compared to vehicle control,[2],0%
same,AMAX,[3],109
same,AMAX percentage change compared to vehicle control,[3],-2%
same,APD30,[3],148
same,APD30 percentage change compared to vehicle control,[3],4%
same,APD50,[3],200
same,APD50 percentage change compared to vehicle control,[3],3%
same,APD90,[3],284
same,APD90 percentage change compared to vehicle control,[3],2%
same,Alternans,[3],0.52
same,Alternans percentage change compared to vehicle control,[3],12%
same,Beat Escape,[3],0
same,Beat Escape percentage change compared to vehicle control,[3],0%
same,EADs,[3],0
same,EADs percentage change compared to vehicle control,[3],0%
same,ERP,[3],0.45
same,ERP percentage change compared to vehicle control,[3],0%
same,Max Dispersion,[3],2.43
same,Max Dispersion percentage change compared to vehicle control,[3],-13%
same,RMP,[3],-85
same,RMP percentage change compared to vehicle control,[3],-3%
same,Refractoriness Escape,[3],0
same,Refractoriness Escape percentage change compared to vehicle control,[3],0%
same,STV,[3],0.39
same,STV percentage change compared to vehicle control,[3],30%
same,Triangulation,[3],135
same,Triangulation percentage change compared to vehicle control,[3],0%
same,AMAX,[4],110
same,AMAX percentage change compared to vehicle control,[4],0%
same,APD30,[4],140
same,APD30 percentage change compared to vehicle control,[4],-2%
same,APD50,[4],192
same,APD50 percentage change compared to vehicle control,[4],-2%
same,APD90,[4],277
same,APD90 percentage change compared to vehicle control,[4],0%
same,Alternans,[4],0.60
same,Alternans percentage change compared to vehicle control,[4],31%
same,Beat Escape,[4],0
same,Beat Escape percentage change compared to vehicle control,[4],0%
same,EADs,[4],0
same,EADs percentage change compared to vehicle control,[4],0%
same,ERP,[4],0.46
same,ERP percentage change compared to vehicle control,[4],2%
same,Max Dispersion,[4],3.70
same,Max Dispersion percentage change compared to vehicle control,[4],32%
same,RMP,[4],-87
same,RMP percentage change compared to vehicle control,[4],-1%
same,Refractoriness Escape,[4],0
same,Refractoriness Escape percentage change compared to vehicle control,[4],0%
same,STV,[4],0.44
same,STV percentage change compared to vehicle control,[4],56%
same,Triangulation,[4],137
same,Triangulation percentage change compared to vehicle control,[4],2%
same,AMAX,[5],109
same,AMAX percentage change compared to vehicle control,[5],2%
same,APD30,[5],107
same,APD30 percentage change compared to vehicle control,[5],8%
same,APD50,[5],151
same,APD50 percentage change compared to vehicle control,[5],6%
same,APD90,[5],228
same,APD90 percentage change compared to vehicle control,[5],2%
same,Alternans,[5],1.31
same,Alternans percentage change compared to vehicle control,[5],24%
same,Beat Escape,[5],0
same,Beat Escape percentage change compared to vehicle control,[5],0%
same,EADs,[5],0
same,EADs percentage change compared to vehicle control,[5],0%
same,ERP,[5],0.48
same,ERP percentage change compared to vehicle control,[5],-3%
same,Max Dispersion,[5],5.60
same,Max Dispersion percentage change compared to vehicle control,[5],14%
same,RMP,[5],-87
same,RMP percentage change compared to vehicle control,[5],1%
same,Refractoriness Escape,[5],0
same,Refractoriness Escape percentage change compared to vehicle control,[5],0%
same,STV,[5],0.91
same,Triangulation,[5],120
same,Triangulation percentage change compared to vehicle control,[5],-2%
same,AMAX,[6],108
same,AMAX percentage change compared to vehicle control,[6],2%
same,APD30,[6],110
same,APD30 percentage change compared to vehicle control,[6],11%
same,APD50,[6],153
same,APD50 percentage change compared to vehicle control,[6],7%
same,APD90,[6],231
same,APD90 percentage change compared to vehicle control,[6],4%
same,Alternans,[6],0.97
same,Alternans percentage change compared to vehicle control,[6],-8%
same,Beat Escape,[6],0
same,Beat Escape percentage change compared to vehicle control,[6],0%
same,EADs,[6],0
same,EADs percentage change compared to vehicle control,[6],0%
same,ERP,[6],0.47
same,ERP percentage change compared to vehicle control,[6],-6%
same,Max Dispersion,[6],4.40
same,Max Dispersion percentage change compared to vehicle control,[6],-11%
same,RMP,[6],-86
same,RMP percentage change compared to vehicle control,[6],-1%
same,Refractoriness Escape,[6],0
same,Refractoriness Escape percentage change compared to vehicle control,[6],0%
same,STV,[6],0.66
same,Triangulation,[6],121
same,Triangulation percentage change compared to vehicle control,[6],-2%
same,AMAX,[7],109
same,AMAX percentage change compared to vehicle control,[7],2%
same,APD30,[7],108
same,APD30 percentage change compared to vehicle control,[7],10%
same,APD50,[7],154
same,APD50 percentage change compared to vehicle control,[7],7%
same,APD90,[7],234
same,APD90 percentage change compared to vehicle control,[7],4%
same,Alternans,[7],1.28
same,Alternans percentage change compared to vehicle control,[7],21%
same,Beat Escape,[7],0
same,Beat Escape percentage change compared to vehicle control,[7],0%
same,EADs,[7],0
same,EADs percentage change compared to vehicle control,[7],0%
same,ERP,[7],0.48
same,ERP percentage change compared to vehicle control,[7],-2%
same,Max Dispersion,[7],5.53
same,Max Dispersion percentage change compared to vehicle control,[7],12%
same,RMP,[7],-85
same,RMP percentage change compared to vehicle control,[7],-2%
same,Refractoriness Escape,[7],0
same,Refractoriness Escape percentage change compared to vehicle control,[7],0%
same,STV,[7],0.89
same,Triangulation,[7],126
same,Triangulation percentage change compared to vehicle control,[7],0%
same,AMAX,[8],108
same,AMAX percentage change compared to vehicle control,[8],2%
same,APD30,[8],105
same,APD30 percentage change compared to vehicle control,[8],5%
same,APD50,[8],150
same,APD50 percentage change compared to vehicle control,[8],4%
same,APD90,[8],233
same,APD90 percentage change compared to vehicle control,[8],3%
same,Alternans,[8],0.96
same,Alternans percentage change compared to vehicle control,[8],-10%
same,Beat Escape,[8],0
same,Beat Escape percentage change compared to vehicle control,[8],0%
same,EADs,[8],0
same,EADs percentage change compared to vehicle control,[8],0%
same,ERP,[8],0.48
same,ERP percentage change compared to vehicle control,[8],-3%
same,Max Dispersion,[8],3.10
same,Max Dispersion percentage change compared to vehicle control,[8],-37%
same,RMP,[8],-85
same,RMP percentage change compared to vehicle control,[8],-2%
same,Refractoriness Escape,[8],0
same,Refractoriness Escape percentage change compared to vehicle control,[8],0%
same,STV,[8],0.71
same,Triangulation,[8],128
same,Triangulation percentage change compared to vehicle control,[8],3%
